One assay deals with PKB (Homo sapiens, UniProt P31749). The assay is described as follows: Inhibition of PKB (serine/threonine kinase). It counts as biochemical. The settings on record: read-out: Inhibition of PKB expressed in IC50. How it is done: (§1) The 2-benzoylchromone derivatives were tested as tyrosine kinase inhibitors (see Table 1: Inhibition of TIE-2), but also as serine/threonine kinase inhibitors (see Table 1: PKB).

For another assay, the target named is TIE-2 (Homo sapiens, UniProt Q02763). The assay is described as follows: Inhibition of TIE-2 (tyrosine kinase). It counts as biochemical. The following applies: read-out: Inhibition of TIE-2 expressed in IC50. How it is done:
as §1

pIC50: −log10 of the molar value.

Sequence of TIE-2 (Q02763 23-1124): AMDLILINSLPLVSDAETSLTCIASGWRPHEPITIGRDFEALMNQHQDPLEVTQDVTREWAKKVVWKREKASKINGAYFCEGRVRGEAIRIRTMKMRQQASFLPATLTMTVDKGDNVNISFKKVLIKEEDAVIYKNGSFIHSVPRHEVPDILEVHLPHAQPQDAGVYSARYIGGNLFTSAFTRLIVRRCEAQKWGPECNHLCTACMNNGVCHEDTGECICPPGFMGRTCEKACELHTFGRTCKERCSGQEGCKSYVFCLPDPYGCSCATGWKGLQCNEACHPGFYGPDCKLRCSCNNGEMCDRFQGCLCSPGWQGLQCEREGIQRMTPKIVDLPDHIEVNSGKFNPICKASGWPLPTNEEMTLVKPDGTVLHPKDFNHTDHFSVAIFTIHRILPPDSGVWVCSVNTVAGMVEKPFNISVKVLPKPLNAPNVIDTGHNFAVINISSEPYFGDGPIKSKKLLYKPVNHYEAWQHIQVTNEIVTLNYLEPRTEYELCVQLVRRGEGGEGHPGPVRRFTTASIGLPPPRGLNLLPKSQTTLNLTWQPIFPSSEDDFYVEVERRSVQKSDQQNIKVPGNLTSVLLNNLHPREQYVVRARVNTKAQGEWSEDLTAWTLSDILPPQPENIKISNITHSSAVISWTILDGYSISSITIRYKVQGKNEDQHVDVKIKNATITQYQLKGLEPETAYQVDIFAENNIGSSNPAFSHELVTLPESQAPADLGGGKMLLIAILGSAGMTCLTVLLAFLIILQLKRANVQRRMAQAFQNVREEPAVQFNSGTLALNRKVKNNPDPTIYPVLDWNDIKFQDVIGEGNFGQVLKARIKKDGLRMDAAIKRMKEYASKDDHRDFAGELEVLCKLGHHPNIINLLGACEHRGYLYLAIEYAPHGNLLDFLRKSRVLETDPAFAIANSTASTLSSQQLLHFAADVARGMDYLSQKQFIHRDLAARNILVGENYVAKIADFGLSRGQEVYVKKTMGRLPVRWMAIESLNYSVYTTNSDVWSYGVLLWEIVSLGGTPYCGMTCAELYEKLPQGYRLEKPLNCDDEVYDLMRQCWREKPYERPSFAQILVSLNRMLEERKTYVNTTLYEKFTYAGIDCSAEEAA
Sequence of PKB (P31749 whole entry): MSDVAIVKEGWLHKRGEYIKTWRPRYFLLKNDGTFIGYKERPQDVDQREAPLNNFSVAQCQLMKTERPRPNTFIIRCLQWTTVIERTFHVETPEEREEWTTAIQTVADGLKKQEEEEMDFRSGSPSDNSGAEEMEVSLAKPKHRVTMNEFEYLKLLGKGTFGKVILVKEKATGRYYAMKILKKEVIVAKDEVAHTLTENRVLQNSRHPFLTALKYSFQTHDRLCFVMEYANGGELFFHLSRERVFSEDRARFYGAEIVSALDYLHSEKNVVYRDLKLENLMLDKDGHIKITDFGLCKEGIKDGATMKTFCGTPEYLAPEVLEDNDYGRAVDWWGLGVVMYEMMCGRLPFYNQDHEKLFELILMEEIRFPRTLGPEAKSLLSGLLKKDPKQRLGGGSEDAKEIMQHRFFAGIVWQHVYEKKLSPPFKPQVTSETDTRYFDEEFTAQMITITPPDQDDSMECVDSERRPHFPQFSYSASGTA

Usually pIC50 stands for the IC50 on a negative log10 scale, so that one unit is a factor of ten. In the case of `O=C(c1cc(=O)c2cc3c(cc2o1)OCO3)c1cc2c(cc1O)OCO2` [6,7-methylenedioxy-2-(2′-hydroxy-4′,5′-methylenedioxybenzoyl)chromone], the pIC50 at PKB is below 4.52; at TIE-2, 5.44.

As for `O=C(c1cc(=O)c2c(O)cccc2o1)c1ccc(O)cc1O` [5-hydroxy-2-(2′,4′-dihydroxybenzoyl)chromone], the figures for the pIC50 on PKB and on TIE-2 were below 4.52 and below 5.00, respectively.

In the case of `O=C(c1cc(=O)c2cc(O)ccc2o1)c1cc2c(cc1O)OCO2` [6-hydroxy-2-(2′-hydroxy-4′,5′-methylenedioxybenzoyl)chromone], the pIC50 at PKB was below 4.52; on TIE-2 it was below 5.00.

Values taken from US7307100B2, “2-Benzoylchromone derivatives” (Merck Patent GmbH, priority 2002, dated 2007).
